Columns and labels:
[1] = test system: tomato leaf transpiration; test: Tomato leaf transpiration inhibition after foliar spray (LI-1600 porometer); type: in vivo, Tomato (variety: Rutgers); details: for Transpiration rate (% of control), 1 day after treatment: day 1; for Transpiration rate (% of control), 2 days after treatment: day 2; for Transpiration rate (% of control), 3 days after treatment: day 3; for Transpiration rate (% of control), 4 days after treatment: day 4; for Transpiration rate (% of control), 7 days after treatment: day 7; for ABA dose to achieve 50% inhibition of transpiration: from linear regression of 3-day average transpiration rate on log dose
Experimental: (§1) Preparation of plant specimens for use in the treatment studies of the EXAMPLES that follow was carried out as follows. Tomato (variety: Rutgers) seeds were sown in an 18-cell flat filled with Promix PGX (available from Premier Horticulture Inc., Quakertown Pa.) and grown for 3 weeks to allow for germination and initial growth. Plants were then transplanted into pots (18 cm in diameter and 18 cm in height), filled with Promix BX (available from Premier Horticulture Inc., Quakertown Pa.), and grown for one or two more weeks before treatment, depending on temperature and available light. Plants received daily irrigation and weekly fertilizer (1 g/L all purpose fertilizer 20-20-20, available from The Scotts Company, Marysville, Ohio).
(§2) All treatment solutions were made up with distilled water. The (S)-(+)-abscisic acid (95% active ingredient) is available from Lomon BioTechnology Co., Ltd. (Shichuan, China). The prior art aqueous solution composition of the ammonium salt of (S)-(+)-abscisic acid as prepared in Example 11 above was used as a positive treatment control for most of the studies.
(§3) All experiments were conducted using a randomized complete block experimental design. Solutions of (S)-(+)-abscisic acid and blank treatments (plain water) were applied by spray to the aerial parts of the tomato plants at the rate of 24 mL per 6 plants. Plants were then placed in a transparent chamber with humidity controlled within the range of 40 to 60% relative humidity. Leaf transpiration rates were measured at 1, 2, 3, 4 and 7 days after treatment. Measurements were conducted using a LI-1600 Steady State Porometer (LI-Cor, Lincoln, Nebr.). Each day the transpiration rate of the plants of each treatment group was normalized to a percentage of the transpiration rate of untreated plants (plants sprayed with water only) in order to control for day-to-day variability in plant status caused by changes of environmental conditions such as light intensity and temperature. Data for each plant was also averaged over a 3-day period to balance the short term and long term effect of (S)-(+)-abscisic acid on tomato leaf transpiration as well as to reduce experimental variability.
The regression equation of each (S)-(+)-abscisic acid salt as well as abscisic acid concentrations for 50% inhibition of transpiration were calculated. The relative potency of two ABA salts is the reciprocal of the ratio of (S)-(+)-abscisic acid concentration required for 50% transpiration inhibition for each composition.

[2] = test system: tomato shoot fresh weight; test: Tomato shoot fresh weight 7 days after treatment (growth suppression); type: in vivo, Tomato (variety: Rutgers); details: foliar spray
Experimental: as §1, §2, §3
In this experiment, the fresh weights of the aerial parts of the tomato plants were also measured at the end of the experiment, 7 days after treatments were applied, in order to assess the relative growth suppressing activity of the compositions.

[3] = 462 ppm ChI, no (S)-(+)-abscisic acid
[4] = (S)-(+)-abscisic acid dose 0.3 mg, foliar spray
[5] = (S)-(+)-abscisic acid dose 1 mg, foliar spray
[6] = (S)-(+)-abscisic acid dose 3 mg, foliar spray
[7] = (S)-(+)-abscisic acid dose 10 mg, foliar spray
[8] = foliar spray, 250 ppm (S)-(+)-abscisic acid (1 mg), additives as in label
[9] = reciprocal of ratio of doses for 50% transpiration inhibition
[10] = 332 ppm KI, no (S)-(+)-abscisic acid

Row | Compound | Transpiration rate (% of control), Average of 3 days after treatment [1, 4] | Transpiration rate (% of control), Average of 3 days after treatment [1, 5] | Transpiration rate (% of control), Average of 3 days after treatment [1, 6] | Transpiration rate (% of control), Average of 3 days after treatment [1, 7] | Transpiration rate (% of control), 7-Day Average [1, 8] | Transpiration rate (% of control), 1 day after treatment [1, 8] | Transpiration rate (% of control), 2 days after treatment [1, 8] | Transpiration rate (% of control), 3 days after treatment [1, 8] | Transpiration rate (% of control), 4 days after treatment [1, 8] | Transpiration rate (% of control), 7 days after treatment [1, 8] | ABA dose to achieve 50% inhibition of transpiration [1] [mg] | further results
1 | C[N+](C)(C)CCO.[I-] [ChI, choline iodide, reference compound] | – | – | – | – | – | – | – | – | – | – | – | Transpiration rate (% of control), 7-Day Average [1, 3]: 100.6 % of control; Transpiration rate (% of control), 1 day after treatment [1, 3]: 96.4 % of control; Transpiration rate (% of control), 2 days after treatment [1, 3]: 104.2 % of control; Transpiration rate (% of control), 3 days after treatment [1, 3]: 104.5 % of control; Transpiration rate (% of control), 4 days after treatment [1, 3]: 98.9 % of control; Transpiration rate (% of control), 7 days after treatment [1, 3]: 98.9 % of control
2 | CC1=CC(=O)CC(C)(C)[C@@]1(O)/C=C/C(C)=C\C(=O)[O-].C[N+](C)(C)C [Example 3, Tetramethylammonium Salt of (S)-(+)-Abscisic Acid] | 79 % of control | 65 % of control | 52 % of control | 38 % of control | 73.7 % of control | 59.1 % of control | 63.6 % of control | 71.9 % of control | 78.6 % of control | 95.4 % of control | 3.59 | Relative potency compared to the trimethylamine salt composition of Comparative Example 13 [1, 9]: 4.6 times
3 | CC1=CC(=O)CC(C)(C)[C@@]1(O)/C=C/C(C)=C\C(=O)[O-].[K+] [Example 12, Potassium Salt of (S)-(+)-Abscisic Acid, reference compound] | 76 % of control | 66 % of control | 55 % of control | 44 % of control | 77.0 % of control | 55.0 % of control | 64.9 % of control | 76.9 % of control | 90.9 % of control | 97.3 % of control | 5.28 | Relative potency compared to the ammonium salt composition of Comparative Example 11 [1, 9]: 0.98 times
4 | CC1=CC(=O)CC(C)(C)[C@@]1(O)/C=C/C(C)=C\C(=O)O.CN(C)C [Example 13, Trimethylamine Salt of (S)-(+)-Abscisic Acid, reference compound] | 84 % of control | 74 % of control | 65 % of control | 54 % of control | 81.2 % of control | 65.5 % of control | 73.6 % of control | 81.7 % of control | 88.2 % of control | 97.0 % of control | 16.59 | –
5 | CC1=CC(=O)CC(C)(C)[C@@]1(O)/C=C/C(C)=C\C(=O)O.CCCCN(CCCC)CCCC [Example 14, Tributylamine Salt of (S)-(+)-Abscisic Acid, reference compound] | 82 % of control | 70 % of control | 53 % of control | 40 % of control | 79.5 % of control | 59.7 % of control | 71.3 % of control | 78.8 % of control | 87.4 % of control | 100.3 % of control | 4.34 | Fresh weight (g) 7 days after treatment ([2]; 75 ppm (0.3 mg) (S)-(+)-abscisic acid): 15.7 g; Fresh weight (g) 7 days after treatment ([2]; 250 ppm (1 mg) (S)-(+)-abscisic acid, additives as in label): 15.3 g; Fresh weight (g) 7 days after treatment ([2]; 750 ppm (3 mg) (S)-(+)-abscisic acid): 15.0 g; Fresh weight (g) 7 days after treatment ([2]; 2500 ppm (10 mg) (S)-(+)-abscisic acid): 13.9 g
6 | [I-].[K+] [KI, potassium iodide, reference compound] | – | – | – | – | – | – | – | – | – | – | – | Transpiration rate (% of control), 4 Day Average ([1]; 332 ppm KI, no (S)-(+)-abscisic acid, 4-day average): 100.7 % of control; Transpiration rate (% of control), 1 day after treatment [1, 10]: 100.2 % of control; Transpiration rate (% of control), 2 days after treatment [1, 10]: 100.5 % of control; Transpiration rate (% of control), 3 days after treatment [1, 10]: 99.6 % of control; Transpiration rate (% of control), 4 days after treatment [1, 10]: 102.6 % of control
